Data set [1] in a line: Intrinsic clearance in mouse liver microsomes assessed per mg of protein. Type of data set: ADME. Conditions: read-out: CLH. Background: Microsomes from liver hold many membrane-bound enzymes, among them those of drug oxidation.
Data set [2] in a line: Aqueous solubility of the compound in phosphate buffer at pH 7.4. Type of data set: physicochemical.
The subject of the next data set is SW480. In words: Induction of cellular DNA damage PARylation in human SW480 cells at >100 uM by Western blot analysis. Type of data set: functional, cell-based. For orientation: In western blotting, separated proteins are transferred to a membrane and probed.
A short description of data set [3]: Intrinsic clearance in human liver microsomes assessed per mg of protein. The data set is classed as ADME. The following applies: read-out: CLH.

Activity calls are given as the source filed them. No cut-off for these calls is given here.

What is called solubility is the dissolved amount per volume that the medium holds.

Regarding `Cc1cccc2c(=O)[nH]c(-c3ccc(CN4CCC(N(C)C)CC4)cc3)cc12`, the microsomal CLint in data set [1] amounted to 10 µL/min/mg; in data set [3] it was 5 µL/min/mg. This molecule came in with a solubility in data set [2] of over 100 µM. Moreover, the result with SW480 was Active.

Molecule `CN(C)Cc1ccc(-c2cc3ccccc3c(=O)[nH]2)cc1` registered a solubility in data set [2] of over 100 µM.

As to `COc1cccc2c(=O)[nH]c(-c3ccc(CN(C)C)cc3)cc12`, the solubility in data set [2] was over 100 µM.

For the origin of these results see ChEMBL document CHEMBL3763048, “Design and discovery of 3-aryl-5-substituted-isoquinolin-1-ones as potent tankyrase inhibitors” (Medchemcomm, 2015).
